Mortality data for 12 compounds are collected here from patent publication US20260015325A1, “ALKOXY HETEROARYL- CARBOXAMIDE OR THIOAMIDE COMPOUNDS” (SYNGENTA CROP PROTECTION AG, priority 2022, published 2026).

The mortality is the share of the test organisms that died.

This assay deals with Myzus persicae (Green Peach Aphid). Briefly: Myzus persicae (Green Peach Aphid): feeding/contact activity, sunflower leaf discs. It is filed as in vivo. Particulars: foliar, 144 h, application rate of 200 ppm, mixed ages on sprayed sunflower leaf discs, 6 days after infestation, read-out: mortality. The protocol:
Example B6: Myzus persicae (Green Peach Aphid): Feeding/Contact Activity
Sunflower leaf discs were placed onto agar in a 24-well microtiter plate and sprayed with aqueous test solutions prepared from 10′000 ppm DMSO stock solutions. After drying, the leaf discs were infested with an aphid population of mixed ages. The samples were assessed for mortality 6 days after infestation.
Take `Cc1ncc(OC[C@H](C)NS(=O)(=O)C(F)(F)F)cc1C(=O)NC(C)C` [Compound P-34, N-isopropyl-2-methyl-5-[(2S)-2-(trifluoromethylsulfonylamino)propoxy]pyridine-3-carboxamide]: the mortality at 200 ppm is not below 80%. As for `CCNC(=O)c1cc(OC[C@H](C)NS(=O)(=O)C(F)(F)F)cnc1C` [Compound P-36, N-ethyl-2-methyl-5-[(2S)-2-(trifluoromethylsulfonylamino)propoxy]pyridine-3-carboxamide], the mortality at 200 ppm was not below 80%.

Regarding `Cc1ncc(OC[C@H](C)NS(=O)(=O)C(F)(F)F)cc1C(=O)N(C)C1CC1` [Compound P-40, N-cyclopropyl-N,2-dimethyl-5-[(2S)-2-(trifluoromethylsulfonylamino)propoxy]pyridine-3-carboxamide], the mortality at 200 ppm was not below 80%. To `C[C@@H](COc1cnc(Cl)c(C(=O)NCC(=O)NCC2CC2)c1)NS(=O)(=O)C(F)(F)F` [Compound P-53, 2-chloro-N-[2-(cyclopropylmethylamino)-2-oxo-ethyl]-5-[(2S)-2-(trifluoromethylsulfonylamino)propoxy]pyridine-3-carboxamide] belongs not below 80%; to `C[C@@H](COc1cnc(Cl)c(C(=O)N(C)CC(F)F)c1)NS(=O)(=O)C(F)(F)F` [Compound P-59, 2-chloro-N-(2,2-difluoroethyl)-N-methyl-5-[(2S)-2-(trifluoromethylsulfonylamino)propoxy]pyridine-3-carboxamide], not below 80%. On to `Cc1cnc(OC[C@H](C)NS(=O)(=O)C(F)(F)F)cc1C(=O)N(C)C1(C#N)CC1` [Compound P-67, N-(1-cyanocyclopropyl)-N,5-dimethyl-2-[(2S)-2-(trifluoromethylsulfonylamino)propoxy]pyridine-4-carboxamide], for which the mortality at 200 ppm was not below 80%. To `CCc1ncsc1NC(=O)c1cc(OC[C@H](C)NS(=O)(=O)C(F)(F)F)ncc1C` [Compound P-68, N-(4-ethylthiazol-5-yl)-5-methyl-2-[(2S)-2-(trifluoromethylsulfonylamino)propoxy]pyridine-4-carboxamide] belongs not below 80%. On to `Cc1cnc(OC[C@H](C)NS(=O)(=O)C(F)(F)F)cc1C(=O)NCc1ccc2c(c1)COC2` [Compound P-69, N-(1,3-dihydroisobenzofuran-5-ylmethyl)-5-methyl-2-[(2S)-2-(trifluoromethylsulfonylamino)propoxy]pyridine-4-carboxamide], for which the mortality at 200 ppm was not below 80%. On to `COCCC#CC(C)(C)NC(=O)c1cc(OC[C@H](C)NS(=O)(=O)C(F)(F)F)ncc1C` [Compound P-72, N-(5-methoxy-1,1-dimethyl-pent-2-ynyl)-5-methyl-2-[(2S)-2-(trifluoromethylsulfonylamino)propoxy]pyridine-4-carboxamide], for which the mortality at 200 ppm was not below 80%.

For the compound `Cc1cnc(OC[C@H](C)NS(=O)(=O)C(F)(F)F)cc1C(=O)NC(C)C1CC1` (stereo partly drawn) [Compound P-73, N-(1-cyclopropylethyl)-5-methyl-2-[(2S)-2-(trifluoromethylsulfonylamino)propoxy]pyridine-4-carboxamide], the mortality at 200 ppm is not below 80%.

In the case of `Cc1cnc(OC[C@H](C)NS(=O)(=O)C(F)(F)F)cc1C(=O)Nc1cccc(C#N)c1F` [Compound P-75, N-(3-cyano-2-fluoro-phenyl)-5-methyl-2-[(2S)-2-(trifluoromethylsulfonylamino)propoxy]pyridine-4-carboxamide], the mortality at 200 ppm is not below 80%. The figure for `Cc1cnc(OC[C@H](C)NS(=O)(=O)C(F)(F)F)cc1C(=O)NC(C)c1cccnc1` (stereo partly drawn) [Compound P-76, 5-methyl-N-[1-(3-pyridyl)ethyl]-2-[(2S)-2-(trifluoromethylsulfonylamino)propoxy]pyridine-4-carboxamide] is not below 80%.
